From patent US6916933B2, “4-pyridinyl-n-acyl-l-phenylalanines” (Hoffman-La Roche Inc., priority 1999, dated 2005)

Tests used:
[1] = biological target: T1, cell-surface VLA-4 (α4β1 integrin) on Ramos cells binding to immobilized VCAM-1 (Homo sapiens, UniProt P05556+P13612); assay: Ramos (VLA-4)/VCAM-1 Cell-Based Screening Assay (cell adhesion); conditions: Calcein-AM labeled Ramos cells, VCAM-1 coated plates
T1 construct: Ramos cells bearing cell-surface VLA-4; endogenous in cells; host or cells: Ramos cells (VLA-4); VCAM-1 partner made in CHO cells
T1 sequence (P13612 34-1032): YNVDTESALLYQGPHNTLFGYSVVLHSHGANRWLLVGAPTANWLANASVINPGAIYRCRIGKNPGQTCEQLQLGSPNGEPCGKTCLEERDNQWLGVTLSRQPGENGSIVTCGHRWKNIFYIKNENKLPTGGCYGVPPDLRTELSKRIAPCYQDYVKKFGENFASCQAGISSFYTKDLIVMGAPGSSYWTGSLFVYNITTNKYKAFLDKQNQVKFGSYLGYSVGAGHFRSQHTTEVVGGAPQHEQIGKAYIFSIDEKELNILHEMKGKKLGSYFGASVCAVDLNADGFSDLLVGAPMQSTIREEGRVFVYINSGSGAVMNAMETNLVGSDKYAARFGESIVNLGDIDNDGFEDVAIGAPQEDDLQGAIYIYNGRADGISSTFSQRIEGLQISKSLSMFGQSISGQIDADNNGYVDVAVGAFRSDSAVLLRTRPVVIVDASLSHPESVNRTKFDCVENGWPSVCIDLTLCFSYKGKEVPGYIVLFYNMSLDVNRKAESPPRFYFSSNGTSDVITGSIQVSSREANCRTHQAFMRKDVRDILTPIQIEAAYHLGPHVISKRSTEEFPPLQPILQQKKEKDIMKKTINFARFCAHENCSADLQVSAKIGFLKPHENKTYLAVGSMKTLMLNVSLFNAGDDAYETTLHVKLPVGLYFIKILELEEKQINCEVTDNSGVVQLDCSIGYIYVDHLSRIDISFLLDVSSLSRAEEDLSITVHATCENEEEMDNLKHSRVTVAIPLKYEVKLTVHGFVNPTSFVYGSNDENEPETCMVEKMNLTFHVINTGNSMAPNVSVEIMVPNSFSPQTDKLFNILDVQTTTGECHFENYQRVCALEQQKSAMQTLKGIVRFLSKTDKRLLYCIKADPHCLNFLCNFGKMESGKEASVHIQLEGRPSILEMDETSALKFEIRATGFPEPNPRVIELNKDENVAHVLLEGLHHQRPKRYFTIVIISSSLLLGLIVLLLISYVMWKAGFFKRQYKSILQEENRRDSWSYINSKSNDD
T1 sequence (P05556 21-798): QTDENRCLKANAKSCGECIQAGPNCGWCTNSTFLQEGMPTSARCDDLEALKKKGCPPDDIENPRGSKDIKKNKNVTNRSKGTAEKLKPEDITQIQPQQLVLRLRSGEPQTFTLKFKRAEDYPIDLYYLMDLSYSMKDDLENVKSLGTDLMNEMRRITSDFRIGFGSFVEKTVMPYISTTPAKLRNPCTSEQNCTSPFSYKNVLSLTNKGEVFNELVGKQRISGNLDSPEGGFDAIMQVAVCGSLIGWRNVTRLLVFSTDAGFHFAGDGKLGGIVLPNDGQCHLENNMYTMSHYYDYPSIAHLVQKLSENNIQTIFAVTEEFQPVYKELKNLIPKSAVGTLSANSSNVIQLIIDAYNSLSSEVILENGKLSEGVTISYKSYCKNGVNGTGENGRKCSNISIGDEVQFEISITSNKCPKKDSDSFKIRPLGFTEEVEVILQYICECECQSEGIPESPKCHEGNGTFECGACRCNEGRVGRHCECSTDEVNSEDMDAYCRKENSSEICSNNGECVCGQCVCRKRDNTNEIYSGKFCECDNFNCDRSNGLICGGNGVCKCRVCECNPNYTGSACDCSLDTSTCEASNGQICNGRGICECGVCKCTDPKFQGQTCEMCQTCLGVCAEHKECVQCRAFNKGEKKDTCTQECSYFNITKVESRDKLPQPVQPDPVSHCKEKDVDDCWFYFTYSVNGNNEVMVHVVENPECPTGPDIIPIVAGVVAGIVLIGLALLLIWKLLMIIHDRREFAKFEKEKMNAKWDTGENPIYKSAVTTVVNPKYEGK
Experimental: Ramos (VLA-4)/VCAM-1 Cell-Based Screening Assay Protocol
Soluble recombinant human VCAM-1 (mixture of 5- and 7-Ig domain) was purified from CHO cell culture media by immunoaffinity chromatography and maintained in a solution containing 0.1 M Tris-glycine (pH 7.5), 0.1 M NaCl, 5 mM EDTA, 1 mM PMSF, […] NaN3 and 10 μg/mL leupeptin. Calcein-AM was purchased from Molecular Probes Inc.
VLA-4 (α4β1 integrin) antagonist activity, defined as ability to compete with cell-surface VLA-4 for binding to immobilized VCAM-1, was quantitated using a Ramos-VCAM-1 cell adhesion assay. Ramos cells bearing cell-surface VLA-4, were labeled with a fluorescent dye (Calcein-AM) and allowed to bind VCAM-1 in the presence or absence of test compounds. A reduction in fluorescence intensity associated with adherent cells (% inhibition) reflected competitive inhibition of VLA-4 mediated cell adhesion by the test compound.
Initially, this entailed coating 96 well plates (Nunc Maxisorp) with recombinant human VCAM-1 (100 ng in 100 μl PBS), sealing each plate and allowing the plates to stand at 4° C. for ≈18 hr. The VCAM-coated plates were subsequently washed twice with 0.05% Tween-20 in PBS, and then blocked for 1 hr (room temperature) with 200 μl of Blocking Buffer (1% BSA/0.02% thimerosal) to reduce non-specific binding. Following the incubation with Blocking Buffer, plates were inverted, blotted and the remaining buffer aspirated. Each plate was then washed with 300 μl PBS, inverted and the remaining PBS aspirated.
Test compounds were dissolved in 100% DMSO and then diluted 1:25 in VCAM Cell Adhesion Assay Buffer (4 mM CaCl2, 4 mM MgCl2 in 50 mM TRIS-HCl, pH 7.5) (final DMSO=4%). A series of eight 1:4 dilutions were performed for each compound (general concentration range of 1 nM-12,500 nM). 100 μl/well of each dilution was added to the VCAM-coated plates, followed by 100 μl of Ramos cells (200,000 cells/well in 1% BSA/PBS). Plates containing test compounds and Ramos cells were allowed to incubate for 45 min at room temperature, after which 165 μl/well PBS was added. Plates were inverted to remove non-adherent cells, blotted and 300 μL/well PBS added. Plates were again inverted, blotted and the remaining buffer gently aspirated. 100 μl Lysis Buffer (0.1% SDS in 50 mM TRIS-HCl, pH 8.5) was added to each well and agitated for 2 min on a rotary shaking platform. The plates were then read for fluorescence intensity on a Cytofluor 2300 (Millipore) fluorecence measurement system (excitation=485 nm, emission=530 nm).
The results are provided in the following Table II (A=IC50<100 nM, B=IC50<10000 nM, C=IC50<5,000 nM): […]

| Structure (SMILES) | IC50 [1] | melting point |
| --- | --- | --- |
| Cc1cccc(Cl)c1C(=O)N[C@@H](Cc1ccc(-c2cccn(C)c2=O)cc1)C(=O)O [Example 30, N-[(2-chloro-6-methylphenyl)carbonyl]-4-(1-methyl-2-oxo-3-pyridinyl)-L-phenylalanine] | < 10 µM | 204 to 210 °C |
| Cc1ccn(C)c(=O)c1-c1ccc(C[C@H](NC(=O)c2c(Cl)cccc2Cl)C(=O)O)cc1 [Example 31, N-[(2,6-dichlorophenyl)carbonyl]-4-(1,4-dimethyl-2-oxo-3-pyridinyl)-L-phenylalanine] | < 10 µM |  |
| Cc1cccc(Cl)c1C(=O)N[C@@H](Cc1ccc(-c2c(C)ccn(C)c2=O)cc1)C(=O)O [Example 32, N-[(2-chloro-6-methylphenyl)carbonyl]-4-(1,4-dimethyl-2-oxo-3-pyridinyl)-L-phenylalanine] | < 10 µM |  |
| COCCC1(C(=O)N[C@@H](Cc2ccc(-c3c(C(F)(F)F)cc(C)n(C)c3=O)cc2)C(=O)O)CCCC1 [Example 37, N-[[1-(2-methoxyethyl)cyclopentyl]carbonyl]-4-[1,6-dimethyl-4-(trifluoromethyl)-2-oxo-3-pyridinyl]-L-phenylalanine] | < 10 µM | 181 to 183 °C |

The remaining lines, values ahead:

| IC50 [1] | melting point | Structure (SMILES) |
| --- | --- | --- |
| < 0.1 µM |  | Cc1cc(C(F)(F)F)c(-c2ccc(C[C@H](NC(=O)c3c(Cl)cccc3Cl)C(=O)O)cc2)c(=O)n1C [Example 33, N-[(2,6-dichlorophenyl)carbonyl]-4-[1,6-dimethyl-4-(trifluoromethyl)-2-oxo-3-pyridinyl]-L-phenylalanine] |
| < 10 µM | 219 to 221 °C | CCc1cccc(C)c1C(=O)N[C@@H](Cc1ccc(-c2c(C(F)(F)F)cc(C)n(C)c2=O)cc1)C(=O)O [Example 34, N-[(2-ethyl-6-methylphenyl)carbonyl]-4-[1,6-dimethyl-4-(trifluoromethyl)-2-oxo-3-pyridinyl]-L-phenylalanine] |
| < 10 µM |  | Cc1cccc(C(C)C)c1C(=O)N[C@@H](Cc1ccc(-c2c(C(F)(F)F)cc(C)n(C)c2=O)cc1)C(=O)O [Example 35, N-[(2-(1-methylethyl)-6-methylphenyl)carbonyl]-4-[1,6-dimethyl-4-(trifluoromethyl)-2-oxo-3-pyridinyl]-L-phenylalanine] |
| < 0.1 µM | 220 to 223 °C | Cc1cccc(Cl)c1C(=O)N[C@@H](Cc1ccc(-c2c(C(F)(F)F)cc(C)n(C)c2=O)cc1)C(=O)O [Example 36, N-[(2-chloro-6-methylphenyl)carbonyl]-4-[1,6-dimethyl-4-(trifluoromethyl)-2-oxo-3-pyridinyl]-L-phenylalanine] |
